Measured values: patent US20240141372A1, “TRANSGENIC BANANA PLANTS HAVING INCREASED RESISTANCE TO FUSARIUM OXYSPORUM TROPICAL RACE 4 AND METHODS OF PRODUCING SAME” (Elo Life Systems, priority 2022, published 2024)

Test system: Foc_TR4
Test: In vitro spore germination and mycelial growth assay
Type: cell-based, Fusarium oxysporum f.sp. cubense Tropical Race 4
Settings: Foc_TR4 spores, purified Pichia-secreted protein, low ionic strength media, 25° C., A595 at 48 hours; read-out: IC50 (μM, CE fraction)

Ma06_p21420.1: defensin antimicrobial protein, Musa acuminata (KICRLPSIGFRGPCTSDKNCAKVCRREGFDSGDCEGYTMGCLCNKHC; listed as Musa acuminata)
IC50: 3 ± 0.17 µM

GB ID: RRT50697.1: defensin antimicrobial protein, Musa acuminata (RTCESASSRFKGTCVRSSNCASVCQGEGFPDGRCEGLRRRCMCRKPC; listed as Musa acuminata)
IC50: 0.51 ± 0.01 µM

Ma02_p12840.1: defensin antimicrobial protein, Musa acuminata (RTCESQSHKFVGPCVRKANCGNVCQTEGFHGGVCRGSLIHRKCYCTKNC; listed as Musa acuminata)
IC50: 0.86 ± 0.07 µM

Ma04_p36140.1: defensin antimicrobial protein, Musa acuminata (RTCESASTRFKGTCVRSSNCASVCQGEGFPDGKCEGVRRRCMCRKPC; listed as Musa acuminata)
IC50: 0.84 ± 0.06 µM

Mba02_g12080.1: defensin antimicrobial protein, Musa acuminata, without yeast signal peptide (RTCESQSHKFVGPCVREANCANVCHTEGFHGGVCRGTLIHRKCYCTKNC; listed as Musa acuminata)
IC50: 6 ± 0.59 µM

Ma08_p13660.1: defensin antimicrobial protein, Musa acuminata (RKCESASHKFKGLCFRASNCANVCKTEGFHGGHCRGLRRRCFCTKHCNSAT; listed as Musa acuminata)
IC50: > 25 µM

Ma11_p12930.1: defensin antimicrobial protein, Musa acuminata (RVCRYASRSFRGLCFSDTNCAHVCQTEGFNGGHCHGLRRRCMCLRRGC; listed as Musa acuminata)
IC50: 0.17 ± 0.006 µM

B1: Ma09_p21930.1: LTP antimicrobial protein, Musa acuminata (protein, listed as Musa acuminata)
chain: VTCNPLELSPCSSAVLSGARPSAACCAKLKEQQPCFCQYKKNPSLKDYVNSDNGKKALKACGVPIPSC
IC50: 1.86 ± 0.08 µM

B2: Ma11_p18240.1: LTP antimicrobial protein, Musa acuminata (protein, listed as Musa acuminata)
chain: AIGCGQIISYLIPCLGYAQGTGPLTDGCCSGVRALNGAAQTTPDRQATCNCLKRSAAGVSGIQPGLIAGIPSKCGINVPYRISPSTDCSRVR
IC50: 2.25 ± 0.16 µM

B3: Ma04_p30830.1: LTP antimicrobial protein, Musa acuminata (protein, listed as Musa acuminata)
chain: ATCNPTELTPCAAAILKSSPPSSLCCSKLKSQAPCFCQYQKNPSLSRYISGGRKVAAACGVPVPSC
IC50: 6.34 ± 0.23 µM

B4: Ma06_p00870.1: snakin antimicrobial protein, Musa acuminata (protein, listed as Musa acuminata)
chain: KDLPAEEFGVSLAEKGHKHKHSGFSEAECPGACQYRCSKTAYKKPCLFFCQKCCFKCRCVPPGTYAHKEVCPCYNNWKTKRGGPKCP
IC50: > 16 µM

B5: Ma04_p17200.1: LTP antimicrobial protein, Musa acuminata (protein, listed as Musa acuminata)
chain: ITCGQVTSALSSCISYATGKGPLSTACCSGVKSLNSAAKTTADRKTACTCIKSTVSRLSGAQAGAIAGIPGKCGVSIGYPISASTDCSKVK
IC50: 2.09 ± 0.06 µM

B6: Ma04_p17240.1: LTP antimicrobial protein, Musa acuminata (protein, listed as Musa acuminata)
chain: ITCSQVYGDLISCVGYLQGGPIKQQCCSGIKSLIAAARTTQDRRTACGCIKTAAAGLSGIDYGRVSQLPGQCGISVSYKISPNVDCSKIN
IC50: 1.92 ± 0.13 µM

B7: Ma04_p17190.1: LTP antimicrobial protein, Musa acuminata (protein, listed as Musa acuminata)
chain: ITCSQVYGDLISCVGYLQGGPIKQQCCSGIKSLIAAARTTKDRRTACGCIKTAAAGLSGIDYGRVSQLPGQCGISVSYKISPNVDCSKIN
IC50: 3.47 ± 0.21 µM
